Test systems include HL-60(TB) leukemia; A498 renal; SK-MEL-2 melanoma; MCF7 breast; UACC-257 melanoma; MDA-N; HOP-62 NSCLC; SNB-19 CNS; SK-OV-3 ovarian; U251 CNS; ACHN renal; HT29 colon; SN12C renal; K-562 leukemia; HOP-92 NSCLC; BT-549 breast; MALME-3M melanoma; SK-MEL-28 melanoma; HCC-2998 colon; EKVX NSCLC.
What all share (test): NCI tumour cell line growth inhibition, 48 h

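Interpolation was linear, between the two tested concentrations surrounding the appropriate level; five concentrations were tested over 48 hours in 96-well plates. TGI: concentration producing complete growth inhibition.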 Where only a bound is given, the exact number is not on record here.

For eight compounds, TGI results are on record in PubChem BioAssay (NCI).

Take `CC(=O)OC1C(Oc2c(C)cc3c(c2O)[C@@H](C)CC[C@@H]3[C@@H](C)CCC=C(C)C)OCC(O)C1O` (stereo partly specified): the TGI stood at 41.7 µM in the assay on HL-60(TB) leukemia; 36.5 µM with A498 renal; 45.2 µM with SK-MEL-2 melanoma; 42.5 µM in the assay with MCF7 breast; 35.6 µM in the assay on UACC-257 melanoma; 36 µM in the assay on MDA-N. Also, the TGI in the assay on HOP-62 NSCLC is 32.2 µM; with SNB-19 CNS it was 35.1 µM; in the assay on SK-OV-3 ovarian, 38.1 µM; with U251 CNS, 32.3 µM; with ACHN renal, 35.5 µM; in the assay on HT29 colon, 27.6 µM. Besides, the TGI in the assay on SN12C renal was determined as 32.2 µM; in the assay with K-562 leukemia, 39.5 µM.
`CCOC(=O)c1c(N2CCOCC2)[nH]c(=O)c(C(c2c(Cl)cccc2Cl)c2c(O)c(C(=O)OCC)c(N3CCOCC3)[nH]c2=O)c1O`: the TGI in the assay with HOP-92 NSCLC amounted to 8.56 µM; in the assay on HL-60(TB) leukemia it was 4.37 µM; with A498 renal, 20.9 µM; in the assay with SK-MEL-2 melanoma it was 16.2 µM; in the assay on BT-549 breast it was 19.6 µM; in the assay with MCF7 breast it was 6.63 µM. Besides, the TGI with UACC-257 melanoma turned out to be 18.7 µM; in the assay with HOP-62 NSCLC, 30.4 µM; with MALME-3M melanoma, 7.91 µM; in the assay on SNB-19 CNS, 21.1 µM; with SK-MEL-28 melanoma, 4.19 µM; in the assay on SK-OV-3 ovarian, 24.9 µM. Besides, the TGI came out at 15.8 µM with U251 CNS; 13 µM in the assay on ACHN renal; 12.9 µM in the assay on HT29 colon; 11.4 µM in the assay on SN12C renal; 34 µM in the assay on HCC-2998 colon; 32.9 µM with EKVX NSCLC. Besides, the TGI in the assay with K-562 leukemia turned out to be 6.55 µM.
Consider `Cc1ccc2c(c1)CC1(Cc3ccccc3C1=O)C2=O` (stereo unspecified), for which the TGI in the assay with HOP-92 NSCLC, with HL-60(TB) leukemia, in the assay on A498 renal, in the assay on MCF7 breast, in the assay with UACC-257 melanoma and in the assay on MDA-N was over 100 µM throughout. Further, the TGI with HOP-62 NSCLC, in the assay on MALME-3M melanoma, in the assay on SNB-19 CNS, in the assay on SK-MEL-28 melanoma, with SK-OV-3 ovarian and in the assay on U251 CNS was over 100 µM in each case. In addition, the TGI in the assay on ACHN renal, with HT29 colon, in the assay on SN12C renal, in the assay on HCC-2998 colon, in the assay with EKVX NSCLC and in the assay on K-562 leukemia was over 100 µM in each case.
On to `O=C(/C=C/c1ccc2ccccc2c1)NCc1ccc(C(=O)NCCc2ccccc2)cc1`, for which the TGI with HOP-92 NSCLC, in the assay with HL-60(TB) leukemia, with A498 renal, in the assay on SK-MEL-2 melanoma, in the assay on MCF7 breast and with UACC-257 melanoma was over 100 µM throughout. Also, the TGI in the assay with MDA-N, in the assay with HOP-62 NSCLC, in the assay with SNB-19 CNS, in the assay on SK-MEL-28 melanoma, in the assay with SK-OV-3 ovarian and in the assay with U251 CNS was over 100 µM in each case. Further, the TGI in the assay with ACHN renal, with SN12C renal, with HCC-2998 colon and in the assay with K-562 leukemia was over 100 µM throughout.
For the compound `CC(C)OC(=O)/C=C/C(=O)O/C=C/[N+](=O)[O-]`, the TGI in the assay on A498 renal is 40.4 µM; with SK-MEL-2 melanoma, 46.4 µM; with BT-549 breast it was 90.4 µM; in the assay with MCF7 breast, 54.9 µM; in the assay on UACC-257 melanoma, over 100 µM; in the assay on HOP-62 NSCLC, over 100 µM. In addition, the TGI was 63.7 µM in the assay with MALME-3M melanoma; over 100 µM with SNB-19 CNS; over 100 µM with SK-MEL-28 melanoma; over 100 µM with SK-OV-3 ovarian; over 100 µM in the assay on U251 CNS; over 100 µM in the assay on ACHN renal. Besides, the TGI in the assay with HT29 colon was over 100 µM; in the assay on HCC-2998 colon it was 50.2 µM; with EKVX NSCLC, over 100 µM; in the assay with K-562 leukemia, 66.8 µM.
For the compound `CC1(C)/C(=C/N=O)N(O)C(C)(C)N1O`, the TGI in the assay with HOP-92 NSCLC, with HL-60(TB) leukemia, with SK-MEL-2 melanoma, with MCF7 breast, with UACC-257 melanoma and in the assay on MDA-N was over 100 µM in each case. Besides, the TGI in the assay on HOP-62 NSCLC, in the assay on MALME-3M melanoma, with SNB-19 CNS, in the assay on SK-MEL-28 melanoma, in the assay with SK-OV-3 ovarian and in the assay on U251 CNS was over 100 µM throughout. Further, the TGI with ACHN renal, in the assay with HT29 colon, with SN12C renal, in the assay with HCC-2998 colon, in the assay on EKVX NSCLC and in the assay on K-562 leukemia was over 100 µM each time.
Regarding `CCOC(C)O[C@H]1C(=O)OCC1(C)C` (stereo partly specified), the TGI in the assay on HOP-92 NSCLC, in the assay on HL-60(TB) leukemia, with A498 renal, with SK-MEL-2 melanoma, in the assay on MCF7 breast and in the assay with UACC-257 melanoma was over 100 µM each time. For the same compound, the TGI in the assay with MDA-N, with HOP-62 NSCLC, in the assay with MALME-3M melanoma, with SNB-19 CNS, with SK-MEL-28 melanoma and with SK-OV-3 ovarian was over 100 µM each time. Further, the TGI with U251 CNS, in the assay with ACHN renal, in the assay on HT29 colon, in the assay on HCC-2998 colon, in the assay with EKVX NSCLC and in the assay on K-562 leukemia was over 100 µM each time.
In the case of `CC1(C)C[C@@H]2C1CCC1(C)CC2(O)CC[C@H]1O` (stereo partly specified), the TGI with HOP-92 NSCLC, in the assay with HL-60(TB) leukemia, in the assay on SK-MEL-2 melanoma, in the assay with BT-549 breast, with MCF7 breast and with UACC-257 melanoma was over 100 µM each time. The TGI with HOP-62 NSCLC, in the assay on MALME-3M melanoma, in the assay with SNB-19 CNS, with SK-MEL-28 melanoma, in the assay on SK-OV-3 ovarian and with U251 CNS was over 100 µM each time. Moreover, the TGI with ACHN renal, in the assay with HT29 colon, with SN12C renal, in the assay on EKVX NSCLC and with K-562 leukemia was over 100 µM throughout.
